# Patent US20110269815A1, “METHODS OF REDUCING CELLULAR PROLIFERATION BY INHIBITING ACSVL3” (THE JOHNS HOPKINS UNIVERSITY, priority 2008, published 2011)
# Numbered stars: 1 amine (or outer) side, 2 acyl side, 3 side chain; on linkers, the order of the positions; unused ones are H or OH. Bridge positions count the residues as written; N and C are the ends. Square brackets hold non-standard residues; d marks the D form. Peptide text beside a SMILES is read from it. I, II: the chains in the order shown. * marks the point of attachment. Actinocin(9to1) = Cc1c2oc3c(C)ccc(C(=O)[*:1])c3nc-2c(C(=O)[*:2])c(N)c1=O; NMeV = CN[C@H](C(=O)O)C(C)C; Cbz = O=C(OCc1ccccc1)*; Sar = CNCC(=O)O; CH2F = FC*
# Legend:
# ACSVL3 [1] = experiment: Acyl-CoA synthetase activity of control vs ACSVL3-deficient U87 cells with candidate small molecule inhibitors; assay type: biochemical, human; details: 80 μM drug; palmitic acid substrate; preliminary studies, FIG. 14
# Protocol: Acyl-CoA synthetase assays. Activation of [1-^14C]palmitate (C16:0) or [1-^14C]lignocerate (C24:0) (Moravek Biochemicals, Brea Calif.) to their CoA derivatives was measured in frozen/thawed cell suspensions or post-nuclear supernatants of xenograft tissue homogenates as previously described (9, 19). Assays contained 15 or 60 μg cell or tissue protein for C16:0 and C24:0 fatty acid substrates, respectively.
# For this study, we examined the effects of candidate small molecule inhibitors on the acyl-CoA synthetase activity of control U87 glioblastoma cells and ACSVL3-deficient U87 cells. The 16-carbon fatty acid, palmitic acid, was used as substrate. Drugs were solubilized in dimethylsulfoxide (DMSO, 10 mM) and diluted with phosphate-buffered saline (PBS, 0.8 mM) prior to their inclusion in enzyme assays; the final concentration of drug in the assay was 80 μM. Control incubations contained the vehicle, DMSO diluted in PBS, only. The assay measures the combined enzyme activity of all acyl-CoA synthetases found in U87 cells that are capable of using palmitic acid as substrate. A specific inhibitor of ACSVL3 is one in which there is partial inhibition of total cellular enzyme activity in control U87 cells (grey bars), but not in ACSVL3-deficient U87 cells (black bars).
# ACSVL3 [2] = experiment: ACSVL3 expression in U373 cells with transcription or translation inhibitor, without or with HGF; assay type: cell-based, human; details: actinomycin D 20 μg/ml, cycloheximide 5 μM; for HGF-induced increase in ACSVL3 expression: HGF 6 hours
# Protocol: We then investigated whether the increase in ACSVL3 protein in U373 cells was due to increased transcription of the ACSVL3 gene, or increased translation of ACSVL3 mRNA. U373 cells were incubated without or with HGF for 6 hours in the absence and presence of an inhibitor of transcription, actinomycin D, or the protein synthesis (translation) inhibitor, cycloheximide. Actinomycin D (20 μg/ml) and cycloheximide (5 μM) were added to the culture medium 16 and 8 hours, respectively, prior to the addition of HGF.
# Akt = Akt signaling after HGF in control and ACSVL3 KD U87 cells (Western blot); assay type: cell-based, human; details: HGF 20 ng/ml
# Protocol: A & B. Effect of HGF treatment on Akt phosphorylation and stability. Control and ACSVL3-3 KD U87 cells were incubated with HGF (20 ng/ml) for the indicated time prior to analysis for total Akt and phospho-Akt levels by Western blot. A, LiCOR Odyssey images; control and KD images were obtained simultaneously. B, Quantitation of the LiCOR data. C. Effect of caspase inhibition on Akt stability. One control and two different knockdown clones produced using the ACSVL3-3 shRNA plasmid were incubated with HGF (20 ng/ml) for the indicated time in the absence or presence of the pan-caspase inhibitor, Z-VAD-FMK (50 μM), prior to analysis for total Akt and phospho-Akt levels by Western blot. […] Left, adherent growth was measured 11.5 days post-transfection as described in the legend to FIG. 4A. Right, anchorage-independent growth was measured by colony formation in soft agar on day 17 post-transfection as described in the legend to FIG. 4B. Mean±standard error is shown; statistical significance was determined by one-way ANOVA with Bonferroni's multiple comparison test. ***, p<0.001 vs. control vector; **, p<0.01 vs. control vector; n.s., p>0.05 vs. control myr-Akt.
# Immunohistochemistry, immunofluorescence, and Western blotting. […] ACSVL3 was detected on Western blots with SuperSignal West Pico chemiluminescent substrate (Pierce Biotechnology, Rockford Ill.). […]
# ACSVL3 [3] = experiment: ACSVL3 expression in U373 glioma cells treated with HGF or EGF (Western blot); assay type: cell-based, human; details: for ACSVL3 expression: HGF 20 ng/ml or EGF 30 ng/ml, 16 hrs
# Protocol: (§1) A. Human U87, U373, and Mayo-22 glioma cells were grown to ˜80% confluence. Cells were either untreated or incubated 16 hrs in the presence of HGF (20 ng/ml; gift from Genentech; South San Francisco Calif.) or EGF (30 ng/ml; Calbiochem/EMD; San Diego Calif.) before harvesting and Western blot analysis for ACSVL3 expression. Each lane contained 30 μg total cellular protein. Actin was detected as a loading control. The three sections were from the same Western blot; images were obtained simultaneously. B. U87 cells stably expressing constitutively active EGFR (EGFRvIII) or corresponding control U87 cells were harvested and analyzed by Western blot. Actin was detected as a loading control. C. Tumors were produced in the flanks of athymic nude mice (n=12) by s.c. injection (2 sites per mouse) of 4×10^6 U87 cells. When tumors size reached ˜300 mm^3 (day 14), animals were randomly divided into two groups of 6 mice. One group received i.p. injection (100 μg/20 g body wt) of anti-HGF mAb (L2G7) and the other group received isotype control mAb (5G8) on days 14, 16, and 18. Mice were sacrificed on day 20. Tumor homogenates (50 μg protein) were subjected to Western blot analysis for ACSVL3 expression. Actin expression was used as a loading control.
# (§2) Immunohistochemistry, immunofluorescence, and Western blotting. Immunohistochemical staining for ACSVL3 and ACSBG1, and immunofluorescence analysis of ACSVL3, were performed using affinity-purified antibodies as described (9, 15). ACSVL3 was detected on Western blots with SuperSignal West Pico chemiluminescent substrate (Pierce Biotechnology, Rockford Ill.). Total and phospho-Akt (ser473) were detected with antibodies from BD Biosciences (San Jose Calif.) and Cell Signaling Technology (Danvers Mass.), respectively, and quantitated with the LiCOR Odyssey dual wavelength infrared system. Protein was determined by the method of Lowry et al. (16).
# Further characterization of induction of ACSVL3 expression in U373 cells. Human U373 glioma cells have low ACSVL3 expression unless treated with hepatocyte growth factor (HGF). […]
# ACSVL3 [4] = experiment: ACSVL3 expression in U87 glioma cells treated with HGF or EGF (Western blot); assay type: cell-based, human; details: HGF 20 ng/ml or EGF 30 ng/ml, 16 hrs
# Protocol: as §1, with “One group received i.p. injection (100 μg/20 g body wt) of anti-HGF mAb (L2G7) and the other group received isotype control mAb (5G8) on days 14, 16, and 18. Mice were sacrificed on day 20. Tumor homogenates (50 μg protein) were subjected to Western blot analysis for ACSVL3 expression. Actin expression was used as a loading control.” left out
# as §2, with “Immunohistochemical staining for ACSVL3 and ACSBG1, and immunofluorescence analysis of ACSVL3, were performed using affinity-purified antibodies as described (9, 15).” left out
# ACSVL3 [5] = experiment: ACSVL3 expression in Mayo-22 glioma cells treated with HGF or EGF (Western blot); assay type: cell-based, human; details: Mayo 22 cells; HGF 20 ng/ml or EGF 30 ng/ml, 16 hrs
# Protocol: as §1, with “One group received i.p. injection (100 μg/20 g body wt) of anti-HGF mAb (L2G7) and the other group received isotype control mAb (5G8) on days 14, 16, and 18. Mice were sacrificed on day 20. Tumor homogenates (50 μg protein) were subjected to Western blot analysis for ACSVL3 expression. Actin expression was used as a loading control.” left out
# as §2, with “Immunohistochemical staining for ACSVL3 and ACSBG1, and immunofluorescence analysis of ACSVL3, were performed using affinity-purified antibodies as described (9, 15).” left out
compound,measurement,setting,value
CN(C)CCCN1c2ccccc2Sc2ccc(C(F)(F)F)cc21 [Triflupromazine],inhibition of acyl-CoA synthetase activity in control vs ACSVL3-deficient U87 cells (specificity for ACSVL3),ACSVL3 [1],exhibited specificity for ACSVL3
"Cc1c2oc3c(C)ccc(C(=O)N[C@@H]4C(=O)N[C@H](C(C)C)C(=O)N5CCC[C@H]5C(=O)N(C)CC(=O)N(C)[C@@H](C(C)C)C(=O)O[C@@H]4C)c3nc-2c(C(=O)N[C@@H]2C(=O)N[C@H](C(C)C)C(=O)N3CCC[C@H]3C(=O)N(C)CC(=O)N(C)[C@@H](C(C)C)C(=O)O[C@@H]2C)c(N)c1=O [actinomycin D] (I: T[dV]P[Sar][NMeV] / II: T[dV]P[Sar][NMeV]; ester I:1-I:C, II:1-II:C; linker I:N-II:N via Actinocin(9to1))",HGF-induced increase in ACSVL3 expression,ACSVL3 [2],blocked the HGF-induced increase in ACSVL3 expression
same,ACSVL3 expression in the absence of HGF,ACSVL3 [2],neither actinomycin D nor cycloheximide affected ACSVL3 expression
CN(C)CCCN1c2ccccc2Sc2ccc(Cl)cc21 [chlorpromazine],inhibition of acyl-CoA synthetase activity in control vs ACSVL3-deficient U87 cells (specificity for ACSVL3),ACSVL3 [1],exhibited specificity for ACSVL3
C[C@@H]1C[C@@H]([C@H](O)CC2CC(=O)NC(=O)C2)C(=O)[C@@H](C)C1 [cycloheximide],HGF-induced increase in ACSVL3 expression,ACSVL3 [2],blocked the HGF-induced increase in ACSVL3 expression
same,ACSVL3 expression in the absence of HGF,ACSVL3 [2],neither actinomycin D nor cycloheximide affected ACSVL3 expression
Cc1cc(O)c2c(c1)C(=O)c1cc(O)cc(O)c1C2=O [emodin],inhibition of acyl-CoA synthetase activity in control vs ACSVL3-deficient U87 cells (specificity for ACSVL3),ACSVL3 [1],inhibit enzyme activity similarly in both control and ACSVL3-deficient U87 cells
OCCN1CCN(CC/C=C2/c3ccccc3Sc3ccc(C(F)(F)F)cc32)CC1 [flupenthixol],inhibition of acyl-CoA synthetase activity in control vs ACSVL3-deficient U87 cells (specificity for ACSVL3),ACSVL3 [1],"inhibit both control and ACSVL3-deficient cells, but show greater inhibition in control U87 cells"
O=C1NCN(c2ccccc2)C12CCN(CCCC(c1ccc(F)cc1)c1ccc(F)cc1)CC2 [fluspirilene],inhibition of acyl-CoA synthetase activity in control vs ACSVL3-deficient U87 cells (specificity for ACSVL3),ACSVL3 [1],inhibit enzyme activity similarly in both control and ACSVL3-deficient U87 cells
OCCN1CCN(CCCN2c3ccccc3Sc3ccc(Cl)cc32)CC1 [perphenizine],inhibition of acyl-CoA synthetase activity in control vs ACSVL3-deficient U87 cells (specificity for ACSVL3),ACSVL3 [1],exhibited specificity for ACSVL3
Nc1ccc(/N=N/c2ccccc2)c(N)n1 [phenazopyridine],inhibition of acyl-CoA synthetase activity in control vs ACSVL3-deficient U87 cells (specificity for ACSVL3),ACSVL3 [1],inhibit enzyme activity similarly in both control and ACSVL3-deficient U87 cells
CC(CN1c2ccccc2Sc2ccccc21)N(C)C (stereo not shown) [promethazine],inhibition of acyl-CoA synthetase activity in control vs ACSVL3-deficient U87 cells (specificity for ACSVL3),ACSVL3 [1],inhibit enzyme activity similarly in both control and ACSVL3-deficient U87 cells
CN1CCN(CCCN2c3ccccc3Sc3ccc(C(F)(F)F)cc32)CC1 [trifluperazine],inhibition of acyl-CoA synthetase activity in control vs ACSVL3-deficient U87 cells (specificity for ACSVL3),ACSVL3 [1],"inhibit both control and ACSVL3-deficient cells, but show greater inhibition in control U87 cells"
Cbz-Val-Ala-Asp-CH2F,Akt response to HGF stimulation under caspase inhibition,"Akt; ACSVL3 KD U87 cells, Z-VAD-FMK 50 μM",normalized the Akt response to HGF stimulation
"EGF: EGFR ligand, epidermal growth factor",ACSVL3 expression,ACSVL3 [3],increased ACSVL3 expression
same,ACSVL3 expression,ACSVL3 [4],not increased above its high basal expression levels
same,ACSVL3 expression,ACSVL3 [5],increased ACSVL3 expression
"HGF: Hepatocyte growth factor, c-Met agonist",time course of induction of ACSVL3 protein,ACSVL3 [3]; FIG. 12,increased in U373 cells as early as 2 hours
same,ACSVL3 expression,ACSVL3 [3],induce ACSVL3 expression levels
same,Akt phosphorylation (Ser-473),Akt; control-transfected U87 glioma cells,increased rapidly and remained elevated for up to two hours
same,ACSVL3 expression,ACSVL3 [4],not increased above its high basal expression levels
same,ACSVL3 expression,ACSVL3 [5],induce ACSVL3 expression levels
